In patent publication US9625448B2, “Double caged GABA compounds, bis-CNB-GABA” (The Trustees of Princeton University, priority 2014, dated 2017):
“And” between values parts separate entries of the source, which are not always exact repeats. Equal entries are not always repeated. Where two headings read alike, the source gives them in different places.

Assays:
[1] = 1994, cited from earlier work
cerebellar interneurons = assay: Whole-cell holding current under voltage clamp in cerebellar interneurons exposed to caged GABA; type: cell-based
Text: FIGS. 43A-43E illustrate quantification of unwanted effects of caged GABA. Referring to FIGS. 43A-43E, first, changes in whole-cell holding current under voltage clamp were monitored while caged GABA compounds were applied by bath application or by local perfusion as per Civillico, E. F.; Shoham, S.; O'Connor, D. H.; Sarkisov, D. V.; Wang, S. S.-H. Cold Spring Harb. Protoc. 2012, which is incorporated herein by reference as if fully set forth). FIG. 43A illustrates voltage-clamp recordings from cerebellar interneurons exposed to caged GABA. Referring to this figure, upper trace corresponds to 1 mM bis-CNB-GABA; middle trace corresponds to 0.1 mM mono-O-CNB-GABA; bottom trace corresponds to 1 mM DPNI-GABA. Referring to FIG. 43A, (right) expanded traces illustrating the detailed effects on steady-state holding current and fluctuations in holding current were observed. FIG. 43B illustrates effects of caged GABA on spontaneous IPSCs and excitatory postsynaptic currents (EPSCs). Referring to FIG. 43B, IPSCs and EPSCs were identified and separated based on kinetic criteria. FIG. 43B (left) illustrates box plots of spontaneous postsynaptic current amplitudes in control conditions and in the presence of 1 mM bis-CNB-GABA. Referring to FIG. 43B (left), boxes show interquartile range and whiskers show full range of values. FIG. 43B (right) illustrates individual traces (gray) and average (block) of detected spontaneous IPSCs and EPSCs. FIG. 43C illustrates dependence of spontaneous IPSC amplitude on bis-CNB-GABA concentration. […]
Referring to FIG. 43D, in contrast, application of bis-CNB-GABA (raw product, 0.4 to 2.0 mM) evoked no detectable change in the holding current (ratio of holding current drug/control=1.0±0.3, n=14, p=0.7, Mann-Whitney test) or in its standard deviation, which is a measure of steady-state channel noise (from 3.0±0.5 to 3.2±0.8 pA, n=14, p=0.3) measured during periods of no spontaneous currents. […]

GABAA receptors = assay: Spontaneous IPSC / miniature GABA current amplitude, whole-cell patch recording from cerebellar molecular layer interneurons; type: cell-based
Description: Bis-CNB-GABA was applied in vitro. Currents were recorded from cerebellar interneurons. […] FIG. 35 (right) illustrates response traces before and after application of bis-CNB-GABA. FIG. 35 (left) illustrates summary of data. FIG. 36 illustrates effects of 1 mM bis-CNB-GABA on spontaneously evoked miniature glutamate and miniature GABA currents in cerebellar interneuron.
The biological properties of our synthetic bis-CNB-GABA were evaluated using whole-cell patch recording from cerebellar molecular layer interneurons.
FIGS. 43A-43E illustrate quantification of unwanted effects of caged GABA. Referring to FIGS. 43A-43E, first, changes in whole-cell holding current under voltage clamp were monitored while caged GABA compounds were applied by bath application or by local perfusion as per Civillico, E. F.; Shoham, S.; O'Connor, D. H.; Sarkisov, D. V.; Wang, S. S.-H. Cold Spring Harb. Protoc. 2012, which is incorporated herein by reference as if fully set forth). FIG. 43A illustrates voltage-clamp recordings from cerebellar interneurons exposed to caged GABA. Referring to this figure, upper trace corresponds to 1 mM bis-CNB-GABA; middle trace corresponds to 0.1 mM mono-O-CNB-GABA; bottom trace corresponds to 1 mM DPNI-GABA. Referring to FIG. 43A, (right) expanded traces illustrating the detailed effects on steady-state holding current and fluctuations in holding current were observed. FIG. 43B illustrates effects of caged GABA on spontaneous IPSCs and excitatory postsynaptic currents (EPSCs). Referring to FIG. 43B, IPSCs and EPSCs were identified and separated based on kinetic criteria. FIG. 43B (left) illustrates box plots of spontaneous postsynaptic current amplitudes in control conditions and in the presence of 1 mM bis-CNB-GABA. Referring to FIG. 43B (left), boxes show interquartile range and whiskers show full range of values. FIG. 43B (right) illustrates individual traces (gray) and average (block) of detected spontaneous IPSCs and EPSCs. FIG. 43C illustrates dependence of spontaneous IPSC amplitude on bis-CNB-GABA concentration. […] FIG. 43D illustrates comparison of effects of mono-O-CNB-GABA (0.1 mM) and bis-CNB-GABA (1.0 mM, except for 0.4 mM for IPSCs) on spontaneous IPSC amplitude, standard deviation of holding current (noise), and holding current (Ihold). FIG. 43E illustrates spontaneous EPSC size was unaffected by bis-CNB-GABA at all concentrations tested. Referring to FIGS. 43A and 43D, under these conditions, mono-O-CNB-GABA (0.1 mM) led to increases of 66±47 pA (mean±SD, n=6) in inward holding current at −60 mV (Ihold). This inward current presumably arises either via indirectly evoked increases in excitation or from direct activation of GABAA receptors (by residual free GABA in the caged compound solution or by mono-O-CNB-GABA, which may itself have partial agonist activity). See Dellal., S. S.; Luo, R.; Otis, T. S. J. Neurophysiol., 2012, 107, 2958-2970, which is incorporated herein by reference as if fully set forth.
Referring to FIG. 43B, the effects of bis-CNB-GABA on spontaneous IPSCs was next measured. […] Referring to FIG. 43B, in contrast, addition of bis-CNB-GABA served to reduce GABA current amplitudes by approximately one-third (FIG. 43B, top; 0.4 to 2.0 mM; ratio of amplitudes during drug/control: 0.68±0.17, n=14). […] This IC50 is, in fact, a lower bound; the material tested was crude product, which may contain minute amounts of mono-CNB-GABA.

physchem = type: physicochemical; conditions: for rate of spontaneous photoproduct / GABA production: aqueous buffer, 23° C., 12 mM, pH 7.4, fluorescent room lights, first 8 days
Description: The hydrolytic stability of bis-CNB-GABA under normal handling conditions was examined. Accordingly, we prepared samples of bis-CNB-GABA and mono-O-CNB-GABA were prepared in aqueous buffer (23° C., 12 mM, pH=7.4), stored the samples under fluorescent room lights, and determined accumulation of deprotected GABA at 1-day intervals.
FIGS. 44A-44B illustrate accumulation of GABA in ambient room light. FIG. 44A illustrates 1H NMR data used to quantify GABA accumulation. Top, bis-CNB-GABA before light exposure. Arrows denote methylene peaks of bis-CNB-GABA. Peaks at ˜3.45 ppm and ˜3.2 ppm in each spectrum correspond to dimethoxyethane, used as an internal standard. Bottom, The teal overlay indicates the post-photolysis spectrum of bis-CNB-GABA after 17 days of exposure to ambient fluorescent light. Arrows denote the two visible peaks corresponding to a combination of GABA and mono-N-CNB-GABA photoproducts. Note the lack of extraneous peaks in the 0-4 ppm range after light exposure. The dominant final photoproduct of bis-CNB-GABA was GABA, as identified using ^1H NMR. FIG. 44A illustrates 1H NMR data used to quantify GABA accumulation. Referring to this figure (top), bis-CNB-GABA before light exposure. Arrows denote methylene peaks of bis-CNB-GABA. Still referring to FIG. 44A, peaks at ˜3.45 ppm and ˜3.2 ppm in each spectrum correspond to dimethoxyethane, used as an internal standard. Still referring to FIG. 44A (bottom), the teal overlay indicates the post-photolysis spectrum of bis-CNB-GABA after 17 days of exposure to ambient fluorescent light. Arrows denote the two visible peaks corresponding to a combination of GABA and mono-N-CNB-GABA photoproducts. The lack of extraneous peaks in the 0-4 ppm range was observed after light exposure. The combined amount of mono-decaging (N-CNB-GABA) and double-decaging (GABA) photoproduct was quantified using the integrated multiplet at 2.15 ppm, with dimethoxyethane (singlet peaks at 3.20 and 3.45 ppm) as a standard.

dentate granule cells = tested on: dentate granule cells; set-up: dose or concentration left out as unconfirmed; conditions: holding potential −80 mV; cited from earlier work

Compound: O=C(CCCNC(C(=O)O)c1ccccc1[N+](=O)[O-])OC(C(=O)O)c1ccccc1[N+](=O)[O-] (stereo not drawn) [bis-CNB-GABA, 2-((4-(Carboxy(2-nitrophenyl)methoxy)-4-oxobutyl)amino)-2-(2-nitrophenyl)acetic acid]
- dark reaction time ([1]; N-position, Wieboldt et al.): 1.5 ms
- standard deviation of holding current (steady-state channel noise) (cerebellar interneurons; 0.4 to 2.0 mM, control 3.0±0.5 pA, n=14): 3.2±0.8 pA
- ratio of holding current drug/control (cerebellar interneurons; raw product, 0.4 to 2.0 mM, n=14): 1.0±0.3
- concentration generating 33% reduction in response (GABAA receptors): 1 mM
- effects on holding current, IPSCs, or EPSCs (GABAA receptors; 1 mM): minimal or no effects
- decrease in miniature GABA response amplitude / reduction of GABA currents (GABAA receptors; 1 mM, cerebellar interneuron): ~33%
- ratio of GABA current (spontaneous IPSC) amplitudes during drug/control (GABAA receptors; 0.4 to 2.0 mM, n=14): 0.68±0.17
- Kd (GABAA receptors; FIG. 43C, read-out: KD of fit, dependence of spontaneous IPSC amplitude on concentration): 2500 ± 200 µM
- IC50 (GABAA receptors; Table 1, calculated from q=[j]/[j]+IC50, read-out: IC50): 2000 µM
- IC33 (GABAA receptors; Table 1, calculated, q=0.33): 1.0
- IC50 (GABAA receptors; Table 2, the data herein, read-out: IC50 in blocking synaptic GABAA currents): ≥ 2500 µM
- 10-90% rise time of IPSCs (GABAA receptors; during bis-CNB-GABA application, control 0.44±0.13 ms): 0.44±0.11 ms
- IC50 (GABAA receptors; read-out: estimated IC50 from concentration-dependence of the reduction of spontaneous IPSC amplitude, crude product, stated to be a lower bound): ≥ 2500 µM
- antagonist activity at submillimolar concentrations (GABAA receptors; submillimolar concentrations): virtually no antagonist activity
- fold less antagonistic binding compared to CDNI-GABA (GABAA receptors; vs CDNI-GABA): 4 fold
- fold less antagonism compared to DPNI-GABA (GABAA receptors; vs DPNI-GABA): 4 fold
- fold lower affinity / reduction of antagonism compared to mono-caged analog (GABAA receptors; vs mono-CNB-GABA): 70 fold and 100 fold
- rate of spontaneous photoproduct / GABA production (physchem): 1.5±0.1 %/day
- half-life at 12 mM (physchem; buffer, pH 7.4): 98 days
- accumulation of GABA (physchem; during a week in the light): less than 1%
- estimated production of N-CNB-GABA (physchem; during a week in the light): 10%

Compound: NCCCC(=O)OC(C(=O)O)c1ccccc1[N+](=O)[O-] (stereo not drawn) [mono-CNB-GABA]
- uncaging speed ([1]; Gee et al.): microsecond range
- increase in inward holding current at −60 mV (Ihold) (cerebellar interneurons; 0.1 mM, mean±SD, n=6): 66±47 pA
- effect on rate of spontaneous IPSCs (GABAA receptors; 1 mM): dramatic decrease
- rate of spontaneous photoproduct / GABA production (physchem): 1.0±0.2 %/day
- extrapolated half-life t1/2 (physchem; buffer, pH 7.4): 138 days
- effect on EPSC evoked by stimulation of the perforant path (dentate granule cells): did not significantly affect
